Legend:
[1] = system: MCF-7 breast cancer cells; details: 0.01 μM taxol, stated as known; cited from earlier work
[2] = system: MCF-7 breast cancer cells; experiment: Sensitization of MCF-7 breast cancer cells to the cytotoxic effects of Taxol; type: cell-based, human; details: MCF-7, 0.01 μM Taxol alone
Protocol: Tumor cells are allowed to proliferate in the presence of an inhibitory agent for 48 to 96 hrs. At the end of the assay, tumor cell proliferation in the presence of the inhibitory agent is determined either by cell counting or BrdU incorporation and expressed as % of Control Proliferation, where the term “Control Proliferation” refers to tumor cell proliferation in the absence of any inhibitory or other agents.
MCF-7 breast cancer cells were plated onto a 24-well plate at a density of 208,000 cells per well and allowed to adhere overnight. Subsequently, the cells were treated with 0.01 μM taxol, a concentration known to inhibit 50% of MCF-7 cell proliferation. 6 hrs after the addition of taxol, half of the wells received 0.001 μM SEQ ID NO: 2. […] Cell proliferation of control (untreated) MCF-7 cells and MCF-7 cells treated either with Taxol or SEQ ID NO: 2 alone or with the combination of Taxol and SEQ ID NO: 2 was determined.

## CC(=O)O[C@H]1C(=O)[C@@]2(C)[C@H]([C@H](OC(=O)c3ccccc3)[C@]3(O)C[C@H](OC(=O)[C@H](O)[C@@H](NC(=O)c4ccccc4)c4ccccc4)C(C)=C1C3(C)C)[C@]1(OC(C)=O)CO[C@@H]1C[C@@H]2O [Taxol]
[1]
  inhibition of MCF-7 cell proliferation: 50%
[2]
  % Control Proliferation: 52%

From patent US20070249540A1, “Methods for Inhibiting Proteasome and Heat Shock Protein 90” (priority 2004, published 2007)
